Legend:
androgen receptor (AR) [1] = biological target: T1, androgen receptor (AR) (Homo sapiens, UniProt P10275); assay: Androgen-induced PSA-luciferase assay, Luciferase Assay B (cells stably expressing ARR2PB or PSA-firefly luciferase reporter, 384-well); format: cell-based; settings: Luciferase Assay B (Compounds A186-A219 and A221-A245); stable luciferase reporter cells, 1 h pretreatment, R1881 24 h, serum-free; read-out: PSA-Luc IC50 Range
T1 sequence (P10275 1-920 T878A): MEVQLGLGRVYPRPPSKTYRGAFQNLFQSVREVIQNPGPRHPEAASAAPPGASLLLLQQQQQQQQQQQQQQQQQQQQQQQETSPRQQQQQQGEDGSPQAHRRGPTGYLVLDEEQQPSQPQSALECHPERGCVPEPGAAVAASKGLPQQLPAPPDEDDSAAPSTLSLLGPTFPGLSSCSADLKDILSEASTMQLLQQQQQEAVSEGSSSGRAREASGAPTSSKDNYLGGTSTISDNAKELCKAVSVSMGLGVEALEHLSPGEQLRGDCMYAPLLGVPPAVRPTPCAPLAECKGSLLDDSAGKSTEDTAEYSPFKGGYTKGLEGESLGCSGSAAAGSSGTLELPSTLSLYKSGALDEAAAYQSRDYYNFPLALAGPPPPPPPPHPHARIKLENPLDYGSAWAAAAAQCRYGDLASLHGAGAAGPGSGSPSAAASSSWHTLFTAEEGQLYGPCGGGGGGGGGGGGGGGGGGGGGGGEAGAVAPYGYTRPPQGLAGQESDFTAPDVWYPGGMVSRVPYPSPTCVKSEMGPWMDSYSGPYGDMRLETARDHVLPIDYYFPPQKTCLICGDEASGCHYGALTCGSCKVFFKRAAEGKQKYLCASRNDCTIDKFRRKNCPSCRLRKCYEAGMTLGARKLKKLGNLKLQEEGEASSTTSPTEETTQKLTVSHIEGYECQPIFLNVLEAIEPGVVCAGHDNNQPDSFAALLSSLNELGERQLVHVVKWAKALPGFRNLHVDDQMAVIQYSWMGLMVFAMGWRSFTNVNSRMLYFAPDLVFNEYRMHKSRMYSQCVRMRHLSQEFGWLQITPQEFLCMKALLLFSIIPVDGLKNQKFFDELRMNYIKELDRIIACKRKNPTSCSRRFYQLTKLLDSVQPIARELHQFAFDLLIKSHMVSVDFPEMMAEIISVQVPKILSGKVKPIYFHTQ
Procedure: Luciferase Assay B: Cells stably expressing probasin promoter (ARR2PB) or human prostate-specific antigen (PSA)-firefly luciferase reporter were plated in poly-D-lysine-coated 384-well plates. 48 h after plating, cells were pretreated with vehicle or compounds for 1 h before adding R1881 under serum-free and phenol red-free conditions and then further incubated for 24 h. R1881 was added only for LNCaP cells. Firefly luciferase activities were determined by EnVision plate reader (Perkinemer) using the Steady-Glo Luciferase Reporter Assay System (Promega). Values were normalized to protein content. GraphPad Prism graphing software was used to calculate IC50 values. Luciferase Assay B was run for Compounds A186-A219 and A221-A245 in Table 2.
Statistical analyses were performed using GraphPad Prism (Version 6.01 for Windows; La Jolla, CA, USA). Comparisons between treatment and control groups were compared using Two-Way ANOVA with post-hoc Dunnett's and Tukey's tests. Differences were considered statistically significant at P values less than 0.05.

[2] = Microsomal stability assay, liver microsome half-life (human); format: in vitro ADME; settings: pH 7.4; human liver microsomes 0.5 mg/mL + NADPH, 1 μM compound, 37° C; read-out: Liver microsome + NADPH T½ (min) Human
From the text: (§1) Microsomal Stability Assay: Microsomal stability assay is a widely used in vitro model to characterize the metabolic conversion by phase I enzymes, such as cytochrome P450 (CYP) enzymes. Since metabolism is known to be highly variable in different species, microsomal stability assay is commonly run in multiple species. Metabolic stability of testing compound can be evaluated using human, rat, mouse, or other animal liver or intestine microsomes to predict intrinsic clearance.
(§2) The assay was carried out in 96-well microtiter plates at 37° C. Reaction mixtures (25 μL) contained a final concentration of 1 μM test compound, 0.5 mg/mL liver microsomes protein, and 1 mM NADPH and/or 1 mM UDPGA (with alamethicin) in 100 mM potassium phosphate, pH 7.4 buffer with 3 mM MgCl2. The incubation was done with N=1, but duplicate incubation at each time point can be prepared if necessary. At each of the time points (for example, 0, 15, 30, and 60 minutes), 150 μL of quench solution (100% acetonitrile with 0.1% formic acid) with internal standard was transferred to each well. Besides the zero minute controls, mixtures containing the same components except the NADPH can also be prepared as the negative control. Verapamil was included as a positive control to verify assay performance. Plates were sealed, vortexed, and centrifuged at 4° C. for 15 minutes at 4000 rpm. The supernatant is transferred to fresh plates for LC/MS/MS analysis.
(§3) Summarized conditions: [Compound]=1 μM, [LM]=0.5 mg/mL, [NADPH]=1 mM and/or [UDPGA]=1 mM, Buffer=100 mM Potassium Phosphate, pH 7.4 with 3 mM MgCl2, Time=0, 15, 30, and 60 min, and Temperature=37° C.
(§4) All samples were analyzed on LC/MS/MS using an AB Sciex API 4000 instrument, coupled to a Shimadzu LC-20AD LC Pump system. Analytical samples were separated using a Waters Atlantis T3 dC18 reverse phase HPLC column (20 mm×2.1 mm) at a flow rate of 0.5 mL/min. The mobile phase consisted of 0.1% formic acid in water (solvent A) and 0.1% formic acid in 100% acetonitrile (solvent B).
(§5) The extent of metabolism is calculated as the disappearance of the test compound, compared to the 0-min time incubation. Initial rates are calculated for the compound concentration and used to determine half-life (t1/2).

[3] = Microsomal stability assay, liver microsome half-life (rat); format: in vitro ADME; settings: pH 7.4; rat liver microsomes 0.5 mg/mL + NADPH, 1 μM compound, 37° C; read-out: Liver microsome + NADPH T½ (min) Rat
From the text: as §1, §2, §3, §4, §5

[4] = Microsomal stability assay, liver microsome half-life (mouse); format: in vitro ADME; settings: pH 7.4; mouse liver microsomes 0.5 mg/mL + NADPH, 1 μM compound, 37° C; read-out: Liver microsome + NADPH T½ (min) Mouse
From the text: as §1, §2, §3, §4, §5

[5] = Microsomal stability assay, liver microsome half-life (dog); format: in vitro ADME; settings: pH 7.4; dog liver microsomes 0.5 mg/mL + NADPH, 1 μM compound, 37° C; read-out: Liver microsome + NADPH T½ (min) Dog
From the text: as §1, §2, §3, §4, §5

[6] = Microsomal stability assay, liver microsome half-life (monkey); format: in vitro ADME; settings: pH 7.4; monkey liver microsomes 0.5 mg/mL + NADPH, 1 μM compound, 37° C; read-out: Liver microsome + NADPH T½ (min) Monkey
From the text: as §1, §2, §3, §4, §5

androgen receptor (AR) [7] = biological target: T2, androgen receptor (AR) (Homo sapiens, UniProt P10275, T878A); assay: Androgen-induced PSA-luciferase assay, Luciferase Assay A (LNCaP transiently transfected with PSA (6.1 kb)-luciferase reporter); format: cell-based; settings: LNCaP cells, 1 h pretreatment, R1881 (1 nM) 24 h, read-out: PSA-Luc IC50 Range
T2 construct: endogenous in cells; host or cells: LNCaP
T2 sequence (P10275 1-920 T878A): T1 sequence (P10275 1-920 T878A)
Method in brief: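 LNCaP cells transfected 24 h with PSA (6.1 kb)-luciferase reporter, pretreated 1 h with compound, then stimulated 24 h with R1881 (1 nM). Firefly luminescence in lysates normalized to protein content; IC50 from activity relative to R1881-induced vehicle control.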

IC50 (androgen receptor (AR) [1]) [nM] | half-life at 1 μM [2] [min] | half-life at 1 μM [3] [min] | half-life at 1 μM [4] [min] | half-life at 1 μM [5] [min] | half-life at 1 μM [6] [min] | IC50 (androgen receptor (AR) [7]) [nM] | SMILES
< 500 | > 120 | > 120 | > 120 | > 120 | > 120 | – | CS(=O)(=O)Nc1cnc2cc(-c3ccc(N(CC(F)(F)F)c4cc(F)c(OC5CC5)c(C#N)c4)cc3)ccc2n1 [Compound A199]
< 500 | > 120 | > 120 | > 120 | > 120 | > 120 | – | CS(=O)(=O)Nc1nccc(COc2ccc(N(CC(F)(F)F)c3cc(Cl)c(OC4CC4)c(C#N)c3)cc2)n1 [Compound A202]
– | > 120 | > 120 | > 120 | > 120 | > 120 | 500 to 2000 | CS(=O)(=O)Nc1cnc2cc(-c3ccc(Oc4cc(Cl)c(OC5CC5)c(C#N)c4)cc3)ccc2n1 [Compound A97, N-(6-(4-(3-chloro-5-cyano-4-cyclopropoxyphenoxy)phenyl)quinoxalin-2-yl) methanesulfonamide]
– | > 120 | > 120 | > 120 | > 120 | > 120 | < 500 | CCN(c1ccc(-c2ccc3nc(NS(C)(=O)=O)cnc3c2)cc1)c1cc(Cl)c(OCCCl)c(C#N)c1 [Compound A82]
– | > 120 | > 120 | > 120 | > 120 | > 120 | < 500 | CN(c1ccc(-c2ccc3nc(NS(C)(=O)=O)cnc3c2)cc1)c1cc(Cl)c(OCCCl)c(C#N)c1 [Compound A81]
– | > 120 | > 120 | > 120 | > 120 | > 120 | < 500 | COc1c(Cl)cc(Oc2ccc(-c3ccc4nc(NS(C)(=O)=O)cnc4c3)cc2)cc1C#N [Compound A43]
– | > 120 | > 120 | > 120 | > 120 | > 120 | 500 to 2000 | CC(C)(c1ccc(OC2CC3(C2)CN(S(C)(=O)=O)C3)cc1)c1cc(Cl)c(OCCCl)c(C#N)c1 [Compound A72]
– | > 120 | > 120 | > 120 | 78 | > 120 | 500 to 2000 | CS(=O)(=O)Nc1ccc2cc(-c3ccc(Oc4cc(Cl)c(OCCCl)c(C#N)c4)cc3)cnc2n1 [Compound A24]
– | > 120 | > 120 | 96 | > 120 | > 120 | < 500 | CS(=O)(=O)Nc1cnc2cc(-c3ccc(N(c4cc(Cl)c(OCCCl)c(C#N)c4)C4CC4)cc3)ccc2n1 [Compound A80, N-(6-(4-((3-chloro-4-(2-chloroethoxy)-5-cyanophenyl)(cyclopropyl)amino)phenyl)quinoxalin-2-yl)methanesulfonamide]
– | > 120 | 112 | > 120 | > 120 | 117 | < 500 | CC(C)(c1ccc(-c2cnn([C@H]3C[C@H](NS(C)(=O)=O)C3)c2)cc1)c1cc(Cl)c(OCCCl)c(C#N)c1 [Compound A44, N-((1r,3r)-3-(4-(4-(2-(3-chloro-4-(2-chloroethoxy)-5-cyanophenyl)propan-2-yl)phenyl)-1H-pyrazol-1-yl)cyclobutyl)methanesulfonamide]
– | > 120 | > 120 | > 120 | > 120 | > 120 | 500 to 2000 | CS(=O)(=O)Nc1cnc2cc(-c3ccc(Oc4cc(Cl)c(N5CCOCC5)c(C#N)c4)cc3)ccc2n1 [Compound A83]
– | > 120 | > 120 | > 120 | > 120 | 32 | < 500 | CC(C)(c1ccc(-c2cnc(N3CC(NS(C)(=O)=O)C3)cn2)cc1)c1cc(Cl)c(OCCCl)c(C#N)c1 [Compound A37]
– | > 120 | > 120 | > 120 | > 120 | > 120 | 500 to 2000 | CS(=O)(=O)Nc1cnc2cc(-c3ccc(Oc4cc(Cl)c(OCCCl)c(C#N)c4)cc3)ccc2n1 [Compound A16, N-(6-(4-(3-chloro-4-(2-chloroethoxy)-5-cyanophenoxy)phenyl)quinoxalin-2-yl)methanesulfonamide]
– | > 120 | > 120 | > 120 | > 120 | > 120 | 500 to 2000 | CC(C)(c1ccc(-c2cnn(C34CC(NS(C)(=O)=O)(C3)C4)c2)cc1)c1cc(Cl)c(OCCCl)c(C#N)c1 [Compound A75]
– | > 120 | 61 | > 120 | 62 | > 120 | 500 to 2000 | CC(C)(c1ccc(-c2ccc(CNS(C)(=O)=O)nc2)cc1)c1cc(Cl)c(OCCCl)c(C#N)c1 [Compound A1]

From patent US20230373934A1, “ANDROGEN RECEPTOR MODULATORS AND METHODS FOR THEIR USE” (ESSA Pharma, Inc., priority 2022, published 2023)
